Assay results from PubChem BioAssay AID624026 (Broad Institute, 2012).
Where “and” joins values, the source holds several entries; their conditions need not be identical. Equal values may be shown once. Calls of active or inactive are those of the source.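 Rule for the calls: active = compounds reducing cell viability with a fitted AC50 at or below twice their top valid dose; inconclusive = flat curve between -70% and -30%, or an unreliable fit; inactive = the rest.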

How the values were obtained:
[1] = cytotoxicity in ldlA[mSR-BI] CHO cells, dose response, cytotoxicity control for SR-BI HDL uptake inhibitor project, cell-based, CellTiter-Glo, 24 h, powder samples, set 7 (AID 624026); settings: ldlA[mSR-BI] CHO cells viability, CellTiter-Glo ATP, 24 h; at 35 µM (top of the series)
[2] = system: ldlA[mSR-BI] CHO cells viability, CellTiter-Glo ATP, 24 h; test: as above

Row | Structure (SMILES) | activity change, negative = cytotoxicity [1] | AC50 [2]
1 | O=C1C2C3C=CC(C3)C2C(=O)N1c1cccc(N2C(=O)C3C4C=CC(C4)C3C2=O)n1 (configuration not stated) | -1.42% (inactive) | –
2 | C[C@@H]1CN([C@H](C)CO)C(=O)c2cc(NC(=O)Cc3cn(C)c4ccccc34)ccc2O[C@H]1CN(C)S(=O)(=O)c1ccc(F)cc1 | 12.8% (inactive) | –
3 | C=CCOC(=O)N(C)C[C@@H]1Oc2ccc(NC(=O)OCC3c4ccccc4-c4ccccc43)cc2C(=O)N([C@H](C)CO)C[C@H]1C | – | > 70 µM (inactive)
4 | COc1ccc2c(c1)CC(C1(O)C(=O)N(C)c3ccccc31)C2=O (configuration not stated) | -4.38% (inactive) | –
5 | C[C@@H]1CN([C@H](C)CO)C(=O)c2cc(NC(=O)Cc3cn(C)c4ccccc34)ccc2O[C@H]1CN(C)S(=O)(=O)c1ccc(Cl)cc1 | -1.59% (inactive) | –
6 | CC(C)NC(=O)Nc1ccc2c(c1)C(=O)N([C@H](C)CO)C[C@@H](C)[C@H](CN(C)S(=O)(=O)c1ccc(Cl)cc1)O2 | 10.4% (inactive) and 2.32% (inactive) | > 70 µM (inactive)
7 | CC(C)NC(=O)Nc1ccc2c(c1)C(=O)N([C@H](C)CO)C[C@H](C)[C@H](CN(C)S(=O)(=O)c1ccc(Cl)cc1)O2 | 1.21% (inactive) | –
8 | CC(C)NC(=O)Nc1ccc2c(c1)C(=O)N([C@@H](C)CO)C[C@H](C)[C@H](CN(C)S(=O)(=O)c1ccc(Cl)cc1)O2 | 6.98% (inactive) | –
9 | CC(C)NC(=O)Nc1ccc2c(c1)C(=O)N([C@@H](C)CO)C[C@@H](C)[C@H](CN(C)S(=O)(=O)c1ccc(Cl)cc1)O2 | 0.1% (inactive) | –
10 | C=CCOC(=O)N(C)C[C@@H]1Oc2ccc(N)cc2C(=O)N([C@H](C)CO[Si](C)(C)C(C)(C)C)C[C@H]1C | – | > 70 µM (inactive)
11 | CNC[C@@H]1Oc2ccc(NC(=O)NC(C)C)cc2C(=O)N([C@H](C)CO[Si](C)(C)C(C)(C)C)C[C@H]1C | 0.137% (inactive) | –
12 | C=CCOC(=O)N(C)C[C@@H]1Oc2ccc(NC(=O)NC(C)C)cc2C(=O)N([C@H](C)CO[Si](C)(C)C(C)(C)C)C[C@H]1C | – | 21.6 µM
13 | C[C@@H]1CN([C@H](C)CO)C(=O)c2cc(NC(=O)C3CCCCC3)ccc2O[C@H]1CN(C)C(=O)c1ccc(Cl)cc1 | -8.49% (inactive) | –
14 | CC(C)NC(=O)Nc1ccc2c(c1)CC(=O)N([C@H](C)CO)C[C@@H](C)[C@H](CN(C)S(=O)(=O)c1ccc(Cl)cc1)O2 | 8.33% (inactive) | –
15 | O=C(O)CC(C(=O)Nc1cccc(C(F)(F)F)c1)C1CCCO1 (configuration not stated) | 1.15% (inactive) | –
16 | CC(C)CN(C(=O)COC(=O)C12CC3CC(CC(O)(C3)C1)C2)C1CCS(=O)(=O)C1 (configuration not stated) | -5.18% (inactive) | –

Row | Structure (SMILES) | activity change, negative = cytotoxicity [1] | AC50 [2]
17 | Cc1ccc(OCc2cc(C(=O)N3CCCC(O)C3)no2)cn1 (configuration not stated) | -3.58% (inactive) | –
18 | C[C@@H]1CN([C@H](C)CO)C(=O)c2cc(NC(=O)C3CCOCC3)ccc2O[C@H]1CN(C)S(=O)(=O)c1ccc(Cl)cc1 | -3.51% (inactive) | –
19 | CC(C)NC(=O)Nc1ccc2c(c1)C(=O)N([C@H](C)CO[Si](C)(C)C(C)(C)C)C[C@@H](C)[C@H](CN(C)S(=O)(=O)c1ccc(Cl)cc1)O2 | 2% (inactive) | –
20 | COCC(=O)N1CCc2cc(-c3csc(NC(=O)c4cc(OC)cc(OC)c4)n3)ccc21 | 3.29% (inactive) | –
21 | CC(C)NC(=O)Nc1cccc2c1O[C@@H](CN(C)S(=O)(=O)c1ccc(Cl)cc1)[C@H](C)CN([C@H](C)CO)C2=O | 3.81% (inactive) | –
22 | C[C@@H]1CN([C@H](C)CO)C(=O)c2cc(NC(=O)C3CCCCC3)ccc2O[C@H]1CN(C)S(=O)(=O)c1ccc(Cl)cc1 | 0.365% (inactive) | –
23 | C[C@H](C(=O)NC1CCCC1)N(C(=O)Cn1nnc(-c2ccc3c(c2)OCO3)n1)C1CCCCC1 | -3.33% (inactive) | –
24 | C[C@@H]1CN([C@H](C)CO)C(=O)c2cc(NC(=O)C3CCCCC3)ccc2O[C@H]1CN(C)S(=O)(=O)c1cccc(Cl)c1 | -12.5% (inactive) | –
25 | Cc1noc(C)c1S(=O)(=O)Nc1ccc2c(c1)C(=O)N([C@H](C)CO)C[C@@H](C)[C@H](CN(C)S(=O)(=O)c1ccc(Cl)cc1)O2 | 2.07% (inactive) | –
26 | CCOc1cc2c3c(c1)C1(C(=O)N3C(C)(C)CC2C)C(C#N)=C(N)N2C(=C1C#N)Nc1ccccc12 (configuration not stated) | -18.2% (inactive) | –
27 | CC(C)NC(=O)Nc1ccc2c(c1)C(=O)N([C@@H](C)CO)C[C@@H](C)[C@@H](CN(C)S(=O)(=O)c1ccc(Cl)cc1)O2 | 12.2% (inactive) | –
28 | CC(C)NC(=O)Nc1ccc2c(c1)C(=O)N([C@H](C)CO)C[C@@H](C)[C@@H](CN(C)S(=O)(=O)c1ccc(Cl)cc1)O2 | 4.21% (inactive) | –
29 | C[C@@H]1CN([C@H](C)CO)C(=O)c2cc(NC(=O)C3CCCCC3)ccc2O[C@H]1CN(C)S(=O)(=O)c1ccccc1Cl | 2.46% (inactive) | –
30 | COc1c(NC(=O)C(=O)c2ccc(OCCN3CCOCC3)c3ccccc23)cc(C(C)(C)C)cc1NS(C)(=O)=O | -29.9% (inactive) | –
31 | C[C@@H]1CN([C@H](C)CO[Si](C)(C)C(C)(C)C)C(=O)c2cc(NC(=O)C3CCCCC3)ccc2O[C@H]1CN(C)C(=O)c1ccc(Cl)cc1 | 1.39% (inactive) | –
